Results on 3 compounds are retold here after US20250340519A1, “RADIOLABELLED COMPOUND” (OXFORD UNIVERSITY INNOVATION LIMITED, priority 2018, published 2025).

The test system of one series is U87MG and U251MG cells. Nature of the series: Blocking of 18F-olaparib uptake in U87MG and U251MG cells. The conditions noted are these: 100 μM cold olaparib vs 1 μM ^18F-olaparib. Format: cell-based. As for the experimental part: Olaparib (1) was used at various concentrations to block 1 μM of the radiolabelled isotopologue, ^18F-olparib (compound 3); see FIG. 26.

For series [1] the following is noted: female mice, intravenous bolus 20 mg/kg; cited from earlier work.
In series [2] the test system is U87MG and U251MG xenografts. Briefly: 18F-olaparib biodistribution in U87MG and U251MG tumour xenograft mouse models. Format: in vivo, Balb/c nude mice. Particulars: 20 μg cold olaparib prior to 1 μg ^18F-olaparib, tail vein. Here is the method: U87MG and U251MG xenografts were generated in Balb/c nude mice. The xenograft models were administered various doses (0.5, 1.0, 4.0, and 8.0 μg) of ^18F-olaparib by tail vein injection. At 60-120 min post-injection, mice were sacrificed and organs were collected for biodistribution; see FIGS. 27(a) and (b), and FIG. 28(a). […] We predicted that the uptake for the U251MG xenografts would be greater, but in vivo there is no significant difference between the % ID/g for the U251MG or U87MG xenograft tumours.
A 20-fold excess of cold olaparib was injected via tail vein 60 m prior to 1 μg of ^18F-olaparib via tail vein. The mice were sacrificed at 60-120 min post-injection and organs were harvested.

For a further series, the system named is PANC-1 cells. Briefly: Cell uptake of [18F]olaparib in PANC-1 cells. Format: cell-based, human. The conditions noted are these: excess of unlabelled inhibitor. Here is the method: PARP1 levels in a limited selection of PDAC cell lines were determined using Western blot and confirmed by immunofluorescence microscopy. […] Uptake was reported as a percentage of the total amount added, per mg of total protein recovered from the isolated cells, determined by BCA assay. Specificity of uptake was determined by blocking olaparib binding sites using an excess of cold, unlabeled olaparib, or other PARP inhibitors (rucaparib, talazoparib).
Cell uptake of ^18F-olaparib in Panc-1, MiaPaCa-2 and Capan-1 cells was determined as previously described (Cornelissen, B., Hu, M., McLarty, K., Costantini, D. & Reilly, R. M.
Cellular penetration and nuclear importation properties of 111In-labeled and 123I-labeled HIV-1 tat peptide immunoconjugates in BT-474 human breast cancer cells. Nucl Med Biol 34, 37-46, 2007; Thurber, G. M., Reiner, T., Yang, K. S., Kohler, R. H. & Weissleder, R. Effect of small-molecule modification on single-cell pharmacokinetics of PARP inhibitors. Molecular cancer therapeutics 13, 986-995, 2014; Reiner, T., et al. Imaging therapeutic PARP inhibition in vivo through bioorthogonally developed companion imaging agents. Neoplasia 14, 169-177, 2012). Aliquots of Panc-1, MiaPaca-2, and Capan-1 cells (1.5×10^5 cells/well) were seeded in 24-well plates in warm cell culture medium (500 μL) and the cells were allowed to adhere overnight. Cells were irradiated (10 Gy; dose rate 0.8 Gy/min) or sham-irradiated and then returned to an incubator (37° C., 5% CO2) for 2 h. […] In the blocking groups, non-radioactive olaparib, talazoparib, or rucaparib were also added in increasing concentrations (10 pM-10 μM. After 30 or 60 minutes, the cell culture medium was removed and combined with two washes (500 μL) of cell culture medium. The remaining monolayer of cells was then lysed with 0.1 M sodium hydroxide for 20 minutes at room temperature. The amount of radioactivity contained within the cell culture medium and the cell lysate fractions was measured using a gamma counter. Protein levels from parallel plates were quantified using a Pierce BCA protein assay kit (Thermo Scientific) according to the manufacturer's recommendations and bovine serum albumin was used as the protein standard. Cell uptake levels of [^18F]-olaparib were normalised to percent of the total added radioactivity per milligram protein. […] IC50 values were calculated using GraphPad Prism software (GraphPad Software, San Diego, CA, USA). […]
Aliquots of Panc-1, MiaPaca-2, and Capan-1 cells (7.5×10^4 cells/well) were seeded in 24-well plates in warm cell culture medium (500 μL). […] The amount of radioactivity contained within the cell culture medium and the cell lysate fractions was measured using a gamma counter. […]

For `O=C(c1cc(Cc2n[nH]c(=O)c3ccccc23)ccc1F)N1CCN(C(=O)C2CC2)CC1` [Compound 1, 4-(3-(4-(cyclopropanecabonyl)piperazine-1-carbnonyl)-4-fluorobenzyl)phthalazin-1(2H)-one], the “blocking of ^18F-olaparib uptake in vitro” value in the series with U87MG and U251MG cells is reported as around 70%. The previously reported half-life in series [1] was 58 min. Moreover, the “blocking of ^18F-olaparib tumour uptake in vivo” value in series [2] is listed as around 75%. The “blocking of [^18F]olaparib uptake by excess PARP inhibitor” value (“blocking … by excess PARP inhibitor” below) in the series on PANC-1 cells is recorded as “could be blocked”.
Take `CNCc1ccc(-c2[nH]c3cc(F)cc4c3c2CCNC4=O)cc1` [rucaparib]: the “blocking … by excess PARP inhibitor” value in the series on PANC-1 cells is “could be blocked”.
In the case of `Cn1ncnc1[C@H]1c2n[nH]c(=O)c3cc(F)cc(c23)N[C@@H]1c1ccc(F)cc1` [talazoparib], the “blocking … by excess PARP inhibitor” value in the series with PANC-1 cells is “could be blocked”.
